Laboratory results reported in the supplement of paper PMC10307832.

Experiments:
Assay in all cases: relative viability (nuclei count vs DMSO), 5 days (fraction); higher = more cells survive
EMC-BAC-2 = test system: EMC-BAC-2
Summary of the method: (§1)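 Lung cancer cell lines were seeded in 1536-well plates and dosed by pin tool the next day, with either a single drug or a fixed anchor-drug dose combined with five library-drug doses (not always all listed) spaced in √10 steps. Five days later, one step fixed the cells and stained their nuclei (final 0.05% Triton X-100, 1% formaldehyde, 1 ug/ml Hoechst), and nuclei were counted on 4× images. Relative viability is the nuclei count in treated wells divided by the count in vehicle wells, and each value is the median of duplicate plates.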

NCI-H1944 = test system: NCI-H1944
Summary of the method: as §1

A-427 = test system: A-427
Summary of the method: as §1

NCI-H1793 = test system: NCI-H1793
Summary of the method: as §1

NCI-H2228 = test system: NCI-H2228
Summary of the method: as §1

SW 900 = test system: SW 900
Summary of the method: as §1

COR-L23 = test system: COR-L23
Summary of the method: as §1

NCI-H1993 = test system: NCI-H1993
Summary of the method: as §1

SW 1573 = test system: SW 1573
Summary of the method: as §1

PC-3 [JPC-3] = test system: PC-3 [JPC-3]
Summary of the method: as §1

NCI-H2170 = test system: NCI-H2170
Summary of the method: as §1

HOP-62 = test system: HOP-62
Summary of the method: as §1

NCI-H596 = test system: NCI-H596
Summary of the method: as §1

NCI-H2009 = test system: NCI-H2009
Summary of the method: as §1

LK-2 = test system: LK-2
Summary of the method: as §1

NCI-H3122 = test system: NCI-H3122
Summary of the method: as §1

SK-LU-1 = test system: SK-LU-1
Summary of the method: as §1

NCI-H1792 = test system: NCI-H1792
Summary of the method: as §1

SK-MES-1 = test system: SK-MES-1
Summary of the method: as §1

LXF-289 = test system: LXF-289
Summary of the method: as §1

HARA = test system: HARA
Summary of the method: as §1

With `O=C(O)c1ccc(-c2c[nH]c3ncc(-c4ccccc4)cc23)cc1C1CCCC1` + Nc1nc2[nH]cc(CCc3ccc(C(=O)N[C@@H](CCC(=O)O)C(=O)O)cc3)c2c(=O)[nH]1 [Pemetrexed] (partner 0.2 µM) the relative viability (EMC-BAC-2; first compound 0.04 µM) was 0.451, the relative viability (EMC-BAC-2; first compound 0.1265 µM) was 0.465 and the relative viability (EMC-BAC-2; first compound 0.4 µM) was 0.479. For the same molecule, the relative viability (EMC-BAC-2; first compound 1.265 µM) was 0.451, the relative viability (NCI-H1944; first compound 0.04 µM) was 0.692 and the relative viability (NCI-H1944; first compound 0.1265 µM) was 0.799. The relative viability (NCI-H1944; first compound 0.4 µM) was 0.69, the relative viability (NCI-H1944; first compound 1.265 µM) was 0.565 and the relative viability (A-427; first compound 0.04 µM) was 0.959. For the same molecule, the relative viability (A-427; first compound 0.1265 µM) was 1.06, the relative viability (A-427; first compound 0.4 µM) was 0.943 and the relative viability (A-427; first compound 1.265 µM) was 0.843. The relative viability (NCI-H1793; first compound 0.04 µM) was 0.83, the relative viability (NCI-H1793; first compound 0.1265 µM) was 1.19 and the relative viability (NCI-H1793; first compound 0.4 µM) was 0.865. It also gave a relative viability (NCI-H1793; first compound 1.265 µM) of 0.882, a relative viability (NCI-H2228; first compound 0.04 µM) of 0.349 and a relative viability (NCI-H2228; first compound 0.1265 µM) of 0.294. The relative viability (NCI-H2228; first compound 0.4 µM) was 0.348, the relative viability (NCI-H2228; first compound 1.265 µM) was 0.29 and the relative viability (SW 900; first compound 0.04 µM) was 0.476. For the same molecule, the relative viability (SW 900; first compound 0.1265 µM) was 0.471, the relative viability (SW 900; first compound 0.4 µM) was 0.451 and the relative viability (SW 900; first compound 1.265 µM) was 0.473. For the same molecule, the relative viability (COR-L23; first compound 0.04 µM) was 0.191, the relative viability (COR-L23; first compound 0.1265 µM) was 0.196 and the relative viability (COR-L23; first compound 0.4 µM) was 0.194. It also gave a relative viability (COR-L23; first compound 1.265 µM) of 0.184, a relative viability (NCI-H1993; first compound 0.04 µM) of 0.603 and a relative viability (NCI-H1993; first compound 0.1265 µM) of 0.622. It also gave a relative viability (NCI-H1993; first compound 0.4 µM) of 0.617, a relative viability (NCI-H1993; first compound 1.265 µM) of 0.59 and a relative viability (SW 1573; first compound 0.04 µM) of 0.808. For the same molecule, the relative viability (SW 1573; first compound 0.1265 µM) was 0.762, the relative viability (SW 1573; first compound 0.4 µM) was 0.779 and the relative viability (SW 1573; first compound 1.265 µM) was 0.63. It also gave a relative viability (PC-3 [JPC-3]; first compound 0.04 µM) of 1.05, a relative viability (PC-3 [JPC-3]; first compound 0.1265 µM) of 1.18 and a relative viability (PC-3 [JPC-3]; first compound 0.4 µM) of 1.1. The relative viability (PC-3 [JPC-3]; first compound 1.265 µM) was 1.03, the relative viability (NCI-H2170; first compound 0.04 µM) was 0.265 and the relative viability (NCI-H2170; first compound 0.1265 µM) was 0.263. For the same molecule, the relative viability (NCI-H2170; first compound 0.4 µM) was 0.247, the relative viability (NCI-H2170; first compound 1.265 µM) was 0.282 and the relative viability (HOP-62; first compound 0.04 µM) was 0.327. It also gave a relative viability (HOP-62; first compound 0.1265 µM) of 0.389, a relative viability (HOP-62; first compound 0.4 µM) of 0.307 and a relative viability (HOP-62; first compound 1.265 µM) of 0.351. The relative viability (NCI-H596; first compound 0.04 µM) was 0.472, the relative viability (NCI-H596; first compound 0.1265 µM) was 0.53 and the relative viability (NCI-H596; first compound 0.4 µM) was 0.531. For the same molecule, the relative viability (NCI-H596; first compound 1.265 µM) was 0.479, the relative viability (NCI-H2009; first compound 0.04 µM) was 1.03 and the relative viability (NCI-H2009; first compound 0.1265 µM) was 1.11. For the same molecule, the relative viability (NCI-H2009; first compound 0.4 µM) was 1.03, the relative viability (NCI-H2009; first compound 1.265 µM) was 0.946 and the relative viability (LK-2; first compound 0.04 µM) was 0.172. For the same molecule, the relative viability (LK-2; first compound 0.1265 µM) was 0.344, the relative viability (LK-2; first compound 0.4 µM) was 0.317 and the relative viability (LK-2; first compound 1.265 µM) was 0.276. It also gave a relative viability (NCI-H3122; first compound 0.04 µM) of 0.204, a relative viability (NCI-H3122; first compound 0.1265 µM) of 0.202 and a relative viability (NCI-H3122; first compound 0.4 µM) of 0.217. The relative viability (NCI-H3122; first compound 1.265 µM) was 0.21, the relative viability (SK-LU-1; first compound 0.04 µM) was 0.909 and the relative viability (SK-LU-1; first compound 0.1265 µM) was 0.987. For the same molecule, the relative viability (SK-LU-1; first compound 0.4 µM) was 0.882, the relative viability (SK-LU-1; first compound 1.265 µM) was 0.548 and the relative viability (NCI-H1792; first compound 0.04 µM) was 0.713. For the same molecule, the relative viability (NCI-H1792; first compound 0.1265 µM) was 0.968, the relative viability (NCI-H1792; first compound 0.4 µM) was 1.05 and the relative viability (NCI-H1792; first compound 1.265 µM) was 0.734. The relative viability (SK-MES-1; first compound 0.04 µM) was 0.959, the relative viability (SK-MES-1; first compound 0.1265 µM) was 1.1 and the relative viability (SK-MES-1; first compound 0.4 µM) was 0.941. It also gave a relative viability (SK-MES-1; first compound 1.265 µM) of 0.722, a relative viability (LXF-289; first compound 0.04 µM) of 0.912 and a relative viability (LXF-289; first compound 0.1265 µM) of 0.905. It also gave a relative viability (LXF-289; first compound 0.4 µM) of 0.786, a relative viability (LXF-289; first compound 1.265 µM) of 0.627 and a relative viability (HARA; first compound 0.04 µM) of 0.23. It also gave a relative viability (HARA; first compound 0.1265 µM) of 0.237, a relative viability (HARA; first compound 0.4 µM) of 0.222 and a relative viability (HARA; first compound 1.265 µM) of 0.252.
